Tests used:
Format in all cases: functional
[1] = test system: Medicago sativa; assay: Herbicidal activity against Medicago sativa (alfalfa) assessed as inhibition of seedlings growth after 5 days
[2] = test system: Lepidium sativum; assay: Herbicidal activity against Lepidium sativum assessed as inhibition of seedlings growth after 2 days
[3] = test system: [Chlorella] fusca; assay: Antimicrobial activity against 'Chlorella' fusca at 1 mg by agar diffusion test; settings: Scenedesmus fuscus; read-out: IZ
[4] = test system: Mycotypha microspora; assay: Antimicrobial activity against Mycotypha microspora at 1 mg by agar diffusion test; settings: read-out: IZ
[5] = test system: Microbotryum violaceum; assay: Antimicrobial activity against Microbotryum violaceum at 1 mg by agar diffusion test; settings: read-out: IZ
[6] = test system: Priestia megaterium; assay: Antimicrobial activity against Bacillus megaterium at 1 mg by agar diffusion test; settings: read-out: IZ
[7] = test system: Escherichia coli; assay: Antimicrobial activity against Escherichia coli at 1 mg by agar diffusion test; settings: read-out: IZ
[8] = test system: Aspergillus pseudoglaucus; assay: Antimicrobial activity against Eurotium repens at 1 mg by agar diffusion test; settings: read-out: IZ
[9] = test system: [Chlorella] fusca; assay: Antimicrobial activity against 'Chlorella' fusca at 0.9 mg by agar diffusion test; settings: Scenedesmus fuscus; read-out: IZ
[10] = test system: Aspergillus pseudoglaucus; assay: Antimicrobial activity against Eurotium repens at 0.9 mg by agar diffusion test; settings: read-out: IZ
[11] = test system: Mycotypha microspora; assay: Antimicrobial activity against Mycotypha microspora at 0.9 mg by agar diffusion test; settings: read-out: IZ
[12] = test system: Microbotryum violaceum; assay: Antimicrobial activity against Microbotryum violaceum at 0.9 mg by agar diffusion test; settings: read-out: IZ
[13] = test system: Escherichia coli; assay: Antimicrobial activity against Escherichia coli at 0.9 mg by agar diffusion test; settings: read-out: IZ
[14] = test system: Priestia megaterium; assay: Antimicrobial activity against Bacillus megaterium at 0.9 mg by agar diffusion test; settings: read-out: IZ
[15] = test system: [Chlorella] fusca; assay: Antimicrobial activity against 'Chlorella' fusca at 1.2 mg by agar diffusion test; settings: Scenedesmus fuscus; read-out: IZ
[16] = test system: Aspergillus pseudoglaucus; assay: Antimicrobial activity against Eurotium repens at 1.2 mg by agar diffusion test; settings: read-out: IZ
[17] = test system: Mycotypha microspora; assay: Antimicrobial activity against Mycotypha microspora at 1.2 mg by agar diffusion test; settings: read-out: IZ
[18] = test system: Microbotryum violaceum; assay: Antimicrobial activity against Microbotryum violaceum at 1.2 mg by agar diffusion test; settings: read-out: IZ
[19] = test system: Escherichia coli; assay: Antimicrobial activity against Escherichia coli at 1.2 mg by agar diffusion test; settings: read-out: IZ
[20] = test system: Priestia megaterium; assay: Antimicrobial activity against Bacillus megaterium at 1.2 mg by agar diffusion test; settings: read-out: IZ

Row | Compound | growth inhibition (GI) [1] | growth inhibition (GI) [2] | zone of inhibition at 1000 µg/disc [3] | zone of inhibition at 1000 µg/disc [4] | zone of inhibition at 1000 µg/disc [5] | zone of inhibition at 1000 µg/disc [6] | zone of inhibition at 1000 µg/disc [7] | zone of inhibition at 1000 µg/disc [8] | zone of inhibition at 900 µg/disc [9] | zone of inhibition at 900 µg/disc [10] | zone of inhibition at 900 µg/disc [11] | zone of inhibition at 900 µg/disc [12] | zone of inhibition at 900 µg/disc [13] | zone of inhibition at 900 µg/disc [14] | zone of inhibition at 1200 µg/disc [15] | zone of inhibition at 1200 µg/disc [16] | zone of inhibition at 1200 µg/disc [17] | zone of inhibition at 1200 µg/disc [18] | zone of inhibition at 1200 µg/disc [19] | zone of inhibition at 1200 µg/disc [20]
1 | C=C1C(=O)O[C@H]2C(=O)O[C@H](CC)[C@@H]12 [4-EPI-ETHIOSOLIDE] | 100% | 100% | 3 mm | 6 mm | 10 mm | 5 mm | 5 mm | – | – | – | – | – | – | – | – | – | – | – | – | –
2 | C/C=C/C1=C(Cl)C(=O)[C@@H](Cl)[C@@]1(O)C(=O)OC [(+)-CRYPTOSPORIPSIN] | 100% | 100% | 0 mm | 17 mm | 15 mm | 5 mm | 3 mm | 16 mm | – | – | – | – | – | – | – | – | – | – | – | –
3 | C[C@@H]1Cc2cccc(O)c2C(=O)O1 [(-)-(R)-MELLEIN] | 100% | 100% | – | – | – | – | – | – | 14 mm | 6 mm | 0 mm | 8 mm | 2 mm | 2 mm | – | – | – | – | – | –
4 | C/C=C(\Cl)C1=CC(=O)[C@@]23C[C@@H]2C(C)(C)O[C@@]3(O)C1=O [(-)-MYCORRHIZIN A] | 100% | 100% | – | – | – | – | – | – | – | – | – | – | – | – | 3 mm | 14 mm | 10 mm | 14 mm | 3 mm | 8 mm
